The nature of the series: in vivo. Particulars: male, Sprague-Dawley, rat, ip, 10 mg/kg.

From article PMC12038163 (Research, 2025) come the findings set out here.

In the case of `Cc1cccc(-c2ccc(-c3cc4cnc(NC5CC5)nc4n(CCCCCC(=O)NO)c3=O)c(Cl)c2)n1` [ZMF-25], the AUC(0-inf) was 9100 ng·h/mL, the AUC(0-t) stood at 9070 ng·h/mL, the CL/F is 30 mL/min/kg and the Cmax was 5110 ng/mL. The compound also gave a half-life of 1.4 ± 0.3 h.

By AUC(0-inf) is commonly meant total exposure, with the tail of the curve extrapolated. One may read the AUC(0-t) as the area under the concentration-time curve up to a stated or last time point. A high value points to high exposure. The term CL/F denotes clearance divided by bioavailability, as obtained after extravascular dosing. One may read the Cmax as the maximum level reached in the sampled fluid or tissue. One may read the half-life as how long it takes for the measured level to halve. Read a high half-life as slow decline.
